Columns and labels:
hTS cells = test: LIF dose effect on pluripotency transcription factors in hTS cells (RT-PCR, qPCR, flow cytometry); assay type: cell-based, human
Description: The differential gene expressions of Oct4, Sox2, NANOG, fgfr2, FGF4, BMP4, Cdx2, and endogenous control β-actin (ACTB) were measured in the hTS and the hTS cells treated by 500 units LIF (Chemicon, Temecula, CA) by IQ5 Real-time PCR detection system (Bio-Rad Laboratories) that using fluorescein as an internal passive reference dye for normalization of well-to-well optical variation. PCR amplifications were carried out in a total volume of 25 μl, containing 12.5 μl of 2×SYBR Green supermix (Bio-Rad), 0.5 μl of 10 μM of each primer and 0.5 μl of cDNA samples and mixed with sterile water. The reaction was initiated at 95° C., 3 minutes, followed by 60 three-step amplification cycles consisting of 30 s denaturation at 95° C., 30 s annealing at 60° C., 15 s extension at 72° C. At final dissociation stage, it was run to generate a melting curve for verification of amplification product specificity. Real-time qPCR was monitored and analyzed by the Bio-Rad IQ5 optical system software version 2.0 (Bio-Rad). Relative mRNA levels were calculated using the comparative Ct method (Bio-Rad instruction manual) and presented with ratio to biological controls. ACTB transcript levels were confirmed to correlate well with total RNA amounts and therefore used for normalization throughout. All primer pairs used were confirmed to approximately double the amount of product within one cycle and to yield a single product of the predicted size. Primer sequences of Oct4, Sox2, NANOG, fgfr2, FGF4, BMP4, Cdx2, and endogenous control β-actin (ACTB) are shown in Supplemental Data Table 3.
Cells (5×10^6 cells/ml) were incubated with a variety of primary antibodies for 30 min and then incubated with the appropriate fluorescein isothiocyanate (FITC)-, phycoerythrin (PE)- or Rho-conjugated secondary antibody (Jackson ImmunoResearch, West Grove, PA) at adjusted dilution for 1 h at 4° C. After thorough washing, cells were re-suspended in PBS (1 ml) and subjected to flow cytometry (FACScan, BD Biosciences, San Jose, CA). The data were analyzed with Cell-Quest software (BD Biosciences).
The effects of LIF withdrawal on human trophoblast stem (hTS) cells were examined since hTS cells expresses pluripotent gene markers of both embryonic stem (ES) cells and trophoblastic stem (TS) cells such as Oct4, Nanog, Sox2, and Cdx2 (FIG. 1a). hTS cells were treated with different dosages of LIF, i.e., 500 (mimic at ampulla), 250 (mimic at mid-portion), and 125 units (mimic at isthmus) for 3 days each, showing that LIF promoted Oct4 expression but represses Cdx2, Nanog, and Sox2 expressions in a dose-dependent manner (FIG. 1b). Quantitative PCR analyses supported these findings (FIG. 1c). As the relative expression ratio of Oct4 to Cdx2 enables to determine cell fate in early embryonic differentiation (Niwa et al., 2000), the Oct4/Cdx2 ratio ([…]) appeared to be the highest at the ampulla which decreased to 0.2-fold at mid-portion and became near one at isthmic portion (FIG. 1d). This decreasing trend of Oct4/Cdx2 ratio actually facilitates the differentiation towards trophectoderm fate (Niwa et al., 2005). […] This role of rescuer was further supported by the prominently high Nanog/Oct4 ratio of LIF with 125 units compared to the ratio of LIF with 500 units and the apparent increase of Cdx2/Oct4 ratio at LIF with 125 units (FIG. 1e) No apparent change of Sox2/Cdx2 was found.

Huh-7 cells = test: BBP-induced signaling in Huh-7 cells (RT-PCR, Western blot, immunofluorescence); assay type: cell-based, human; details: PD98059 20 μM, 1 h pretreatment
Description: Huh-7 cells (3×10^5) were seeded into a 6-well dish and incubated for 24 h. Cells cultured serum-free medium overnight were treated with BBP (1 μM) for various time intervals. After BBP stimulation, cells were washed twice with PBS. Total RNAs were extracted by TRIzol methods (Invitrogen). RNA (2 μg) was used to synthesize cDNA by Reverse Transcription System (Promega). The c-DNAs were amplified by the specific primers. The primer pairs were designed as follows: AhR, forward 5′-TACTCTGCCGCCCAAACTGG-3′ (SEQ ID NO:49), reverse 5′-GCTCTGCAACCTCCGATTCC-3′ (SEQ ID NO:50); β-actin, forward 5′-CTC GCT GTC CAC CTT CCA-3′ (SEQ ID NO:51), reverse 5′-GCT GTC ACC TTC ACC GTTC-3′ (SEQ ID NO:52). PCR conditions were set at 95° C. for 5 min and 95° C. for 30 sec, 54° C. for 30 sec, 72° C. for 1 min followed by 72° C. for 10 min (36 cycles). The products were separated by 2% agarose gels and visualized by ethidium bromide.
Huh-7 cells (1×10^6) were seeded into 10 cm dish and cultured overnight. The culture medium was changed to serum-free medium for another night. Cells were treated with BBP (1 μM) for various time intervals. […] Cells were then washed twice with ice-cold PBS and lysed by RIPA lysis buffer (Minipore). Protein concentration was measured by BCA protein assay kit (Thermo). Equal amounts of protein (30 μg protein) were resolved by 8% SDS-PAGE, transferred onto PVDF membrane, and blocked with 5% non-fat dry milk for 1 h at room temperature. After blocking, the membrane was incubated with the primary antibodies including AhR (1:1000), Cox-2 (1:1000), Gαq/11 (1:100), Gβ (1:100), β-actin (1:5000), p44/42 MAP kinase (1:1000) or phospho-p44/42 MAP kinase (1:1000) overnight at 4° C. Cells were washed three times with PBST and then incubated with HRP conjugated secondary antibodies for 1 h at room temperature. After washing, the blot was visualized using an enhanced chemiluminescence kit (ECL) (Amersham).
Cells with or without transfection by AhR siRNA were cultured and treated with BBP (1 μM) for 5 and 15 min each. After treatment with primary and secondary antibodies for AhR and Gαq/11, cells were subjected to confocal immunofluorescence microscopy to analyze the dynamic movement in the cell compartments.

6-OHDA-induced PD rats = test: Immunofluorescence tissue analysis of regeneration of the dopaminergic nigrostriatal pathway; assay type: in vivo
Description: To obtain the brain sections, rats were anesthetized by sodium pentobarbitone (60 mg/kg i.p., Apoteksbolaget, Sweden) and trans-cardially perfused with saline (50 ml, 0.9% w/v) followed by ice-cold paraformaldehyde (200 ml, 10% w/v in 0.02 M PBS) were performed at 18- and 12-week in the acute and chronic PD rats, respectively. Brain sections were subjected for immunocytochemistry, immunohistochemistry, and immunofluorescence tissue analysis as indicated.
To further verify the regeneration of the dopaminergic nigrostriatal pathway after cell therapy, immunofluorescence tissue analysis was performed (TissueGnostics Gmbh, Vienna, Austria). Brain sections were investigated, including 14 acute PD rats (i.e., 2 at 1-week and 2 at 6-week post-injury and 2 controls, 6 at 12-weeks after cell transplantation and 2 controls) and 4 chronic PD rats (i.e., 2 at 12-week after cell therapy and 2 controls). In the SNC, 6-OHDA caused progressive neural degeneration, resulting in various sizes of cavity at 6 weeks post-injury (FIG. 31).

## leukemia inhibitory factor [LIF]
hTS cells; LIF 125 units (mimic at isthmus), 3 days
  Oct4/Cdx2 ratio: one
hTS cells; LIF 125 units, 3 days
  Nanog/Cdx2 ratio: 2 fold
hTS cells; LIF 250 units (mimic at mid-portion), 3 days
  Oct4/Cdx2 ratio: 0.2 fold
hTS cells; LIF 500, 250, 125 units, 3 days
  Oct4 expression: promoted
hTS cells; LIF 500, 250, 125 units, 3 days, dose-dependent
  Cdx2, Nanog, and Sox2 expressions: represses
hTS cells; LIF 500 units (mimic at ampulla), 3 days
  Oct4/Cdx2 ratio: 0.4 fold
hTS cells; LIF 500 units, 3 days
  Nanog/Cdx2 ratio: 0.1 fold
hTS cells; LIF-induced cells, isthmus level (125 U/ml), flow cytometry
  Nanog expression: 62.5%
hTS cells; hTS cells preincubated with RA (10 μM) overnight, then LIF 125, 250, 500 U/ml 1 day, flow cytometry
  RA-induced Nanog expression: suppresses

## COc1cccc(-c2cc(=O)c3ccccc3o2)c1N [PD98059]
Huh-7 cells
  BBP-induced ERK phosphorylation and COX-2 activation: blocked

## NCCc1cc(O)c(O)cc1O [6-OHDA, 6-hydroxydopamine]
6-OHDA-induced PD rats; 1-week post-injury
  DA (TH+) neurons in SNC compared to intact side: 48%
  DA (TH+) neurons in striatum compared to intact side: 78%
6-OHDA-induced PD rats; 6-week post-injury
  DA (TH+) neurons in SNC compared to intact side: 13%
  DA (TH+) neurons in striatum compared to intact side: 4%
6-OHDA-induced PD rats; 6 weeks post-injury
  GFAP(+) cells in lesioned striatum compared to intact side: 65.5%

— patent publication US11891623B2, “Generation of neural stem cells from human trophoblast stem cells” (Accelerated BioSciences Corp., priority 2010, dated 2024)
